According to PubChem BioAssay AID248 (DTP/NCI, 2004):
“And” between values parts separate entries of the source, which are not always exact repeats. Equal values may be shown once. Inconclusive results and toxic doses are left out. Rule as the data show it: active = T/C of 150% or more; inactive = T/C below 125%.

Test system: L1210 leukemia ip in BDF1 mice, survival T/C
Assay: NCI In Vivo Anticancer Drug Screen. Data for tumor model L1210 Leukemia (intraperitoneal) in B6D2F1 (BDF1) mice
Settings: higher = longer survival
Outline: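 Tumor cells were implanted, animals were treated, and survival was followed. The result divides the treated measurement by the vehicle-control measurement.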

Measured: T/C

COc1cccc2c1C(=O)c1c(O)c3c(c(O)c1C2=O)C[C@@](O)(C(C)=O)C[C@@H]3OC1CC(N)C(O)C(C)O1 (stereo partly drawn)
inactive: endpoint: mean survival time, dose: 0.05 mg/kg/injection, schedule: Q01DX009 (ip), vehicle: saline 105 % of control | endpoint: mean survival time, dose: 0.1 mg/kg/injection, schedule: Q01DX015 (ip), vehicle: water 104 % of control | endpoint: mean survival time, dose: 0.1 mg/kg/injection, schedule: Q02DX008 (ip), vehicle: water 97 % of control | endpoint: mean survival time, dose: 0.14 mg/kg/injection, schedule: Q04DX002 (ip), vehicle: saline 104 % of control and 105 % of control | endpoint: mean survival time, dose: 0.14 mg/kg/injection, schedule: Q## X004 (ip), vehicle: water 103 % of control | endpoint: mean survival time, dose: 0.15 mg/kg/injection, schedule: Q02DX008 (ip), vehicle: water 106 % of control | endpoint: mean survival time, dose: 0.25 mg/kg/injection, schedule: Q04DX003 (ip), vehicle: water 104 % of control | endpoint: mean survival time, dose: 0.27 mg/kg/injection, schedule: Q04DX002 (ip), vehicle: saline 94 % of control | endpoint: mean survival time, dose: 0.54 mg/kg/injection, schedule: Q04DX002 (ip), vehicle: saline 100 % of control | endpoint: mean survival time, dose: 1.0 mg/kg/injection, schedule: Q03HX024 (ip), vehicle: water 103 % of control | endpoint: mean survival time, dose: 1.0 mg/kg/injection, schedule: Q04DX005 (ip), vehicle: saline 105 % of control | endpoint: mean survival time, dose: 1.3 mg/kg/injection, schedule: Q02DX005 (ip), vehicle: saline 97 % of control | endpoint: mean survival time, dose: 1.8 mg/kg/injection, schedule: Q## X032 (ip), vehicle: water 95 % of control | endpoint: mean survival time, dose: 2.0 mg/kg/injection, schedule: Q02DX005 (ip), vehicle: saline 102 % of control | endpoint: mean survival time, dose: 2.0 mg/kg/injection, schedule: Q02DX009 (ip), vehicle: saline 102 % of control | endpoint: mean survival time, dose: 2.0 mg/kg/injection, schedule: Q03HX024 (ip), vehicle: water 100 % of control | endpoint: mean survival time, dose: 2.7 mg/kg/injection, schedule: Q## X032 (ip), vehicle: water 100 % of control | endpoint: mean survival time, dose: 3.33 mg/kg/injection, schedule: Q01DX Z (ip), vehicle: saline 105 % of control | endpoint: mean survival time, dose: 3.95 mg/kg/injection, schedule: Q01DX Z (oral), vehicle: saline 101 % of control | endpoint: mean survival time, dose: 4.0 mg/kg/injection, schedule: Q01DX003 (ip), vehicle: saline 103 % of control | endpoint: mean survival time, dose: 4.0 mg/kg/injection, schedule: Q01DX005 (ip), vehicle: saline 102 % of control | endpoint: mean survival time, dose: 4.0 mg/kg/injection, schedule: Q01DX010 (ip), vehicle: saline 92 % of control and 103 % of control | endpoint: mean survival time, dose: 4.0 mg/kg/injection, schedule: Q01DX014 (ip), vehicle: saline 100 % of control | endpoint: mean survival time, dose: 4.0 mg/kg/injection, schedule: Q04DX005 (ip), vehicle: saline 106 % of control | endpoint: mean survival time, dose: 4.0 mg/kg/injection, schedule: Q06HX004 (ip), vehicle: water 102 % of control | endpoint: mean survival time, dose: 4.0 mg/kg/injection, schedule: Q## X Z (ip), vehicle: water 104 % of control | endpoint: mean survival time, dose: 5.0 mg/kg/injection, schedule: Q01DX009 (oral), vehicle: saline 104 % of control | endpoint: mean survival time, dose: 5.0 mg/kg/injection, schedule: Q01DX Z (ip), vehicle: saline 95 % of control | endpoint: mean survival time, dose: 5.92 mg/kg/injection, schedule: Q01DX Z (oral), vehicle: saline 106 % of control | endpoint: mean survival time, dose: 6.0 mg/kg/injection, schedule: Q01DX014 (ip), vehicle: saline 105 % of control | endpoint: mean survival time, dose: 6.25 mg/kg/injection, schedule: Q01DX009 (ip), vehicle: saline 95 % of control | endpoint: mean survival time, dose: 8.0 mg/kg/injection, schedule: Q01DX001 (ip), vehicle: water 98 % of control | endpoint: mean survival time, dose: 8.0 mg/kg/injection, schedule: Q01DX015 (ip), vehicle: saline 103 % of control | endpoint: mean survival time, dose: 8.88 mg/kg/injection, schedule: Q01DX001 (ip), vehicle: saline 105 % of control | endpoint: mean survival time, dose: 8.88 mg/kg/injection, schedule: Q01DX Z (oral), vehicle: saline 100 % of control | endpoint: mean survival time, dose: 9.0 mg/kg/injection, schedule: Q## X032 (ip), vehicle: water 104 % of control | endpoint: mean survival time, dose: 10.0 mg/kg/injection, schedule: Q04DX003 (ip), vehicle: water 104 % of control | endpoint: mean survival time, dose: 12.0 mg/kg/injection, schedule: Q02DX008 (ip), vehicle: saline 102 % of control | endpoint: mean survival time, dose: 12.5 mg/kg/injection, schedule: Q01DX001 (oral), vehicle: water 103 % of control | endpoint: mean survival time, dose: 13.0 mg/kg/injection, schedule: Q## X004 (ip), vehicle: saline 96 % of control | endpoint: mean survival time, dose: 13.3 mg/kg/injection, schedule: Q01DX001 (ip), vehicle: saline 94 % of control and 95 % of control | endpoint: mean survival time, dose: 13.3 mg/kg/injection, schedule: Q01DX Z (oral), vehicle: saline 98 % of control | endpoint: mean survival time, dose: 13.33 mg/kg/injection, schedule: Q#B X Z (oral), vehicle: water 103 % of control | endpoint: mean survival time, dose: 20.0 mg/kg/injection, schedule: Q01DX001 (ip), vehicle: water 95 % of control | endpoint: mean survival time, dose: 20.0 mg/kg/injection, schedule: Q01DX Z (oral), vehicle: saline 106 % of control | endpoint: mean survival time, dose: 25.0 mg/kg/injection, schedule: Q01DX001 (oral), vehicle: water 94 % of control | endpoint: mean survival time, dose: 25.0 mg/kg/injection, schedule: Q04DX002 (ip), vehicle: saline 97 % of control | endpoint: mean survival time, dose: 30.0 mg/kg/injection, schedule: Q01DX001 (ip), vehicle: saline 95 % of control | endpoint: mean survival time, dose: 30.0 mg/kg/injection, schedule: Q01DX Z (oral), vehicle: saline 102 % of control | endpoint: mean survival time, dose: 45.0 mg/kg/injection, schedule: Q01DX Z (oral), vehicle: saline 102 % of control | endpoint: mean survival time, dose: 50.0 mg/kg/injection, schedule: Q01DX001 (oral), vehicle: water 97 % of control | endpoint: mean survival time, dose: 80.0 mg/kg/injection, schedule: Q01DX010 (oral), vehicle: saline 103 % of control | endpoint: mean survival time, dose: 80.0 mg/kg/injection, schedule: Q07DX Z (oral), vehicle: water 97 % of control | endpoint: mean survival time, dose: 100.0 mg/kg/injection, schedule: Q01DX001 (oral), vehicle: water 100 % of control | endpoint: mean survival time, dose: 160.0 mg/kg/injection, schedule: Q07DX Z (oral), vehicle: water 101 % of control | endpoint: median survival time, dose: 0.05 mg/kg/injection, schedule: Q01DX001 (ip), vehicle: saline 100 % of control | endpoint: median survival time, dose: 0.2 mg/kg/injection, schedule: Q01DX001 (ip), vehicle: saline 94 % of control and 100 % of control | endpoint: median survival time, dose: 0.28 mg/kg/injection, schedule: Q03HX008 (ip), vehicle: water 105 % of control | endpoint: median survival time, dose: 0.8 mg/kg/injection, schedule: Q01DX001 (ip), vehicle: saline 100 % of control | endpoint: median survival time, dose: 1.75 mg/kg/injection, schedule: Q04DX003 (ip), vehicle: water 94 % of control | endpoint: median survival time, dose: 1.8 mg/kg/injection, schedule: Q01DX005 (ip), vehicle: water 105 % of control | endpoint: median survival time, dose: 2.0 mg/kg/injection, schedule: Q01DX001 (iv), vehicle: water 99 % of control | endpoint: median survival time, dose: 2.0 mg/kg/injection, schedule: Q01DX005 (ip), vehicle: other 106 % of control | endpoint: median survival time, dose: 2.0 mg/kg/injection, schedule: Q03HX008 (ip), vehicle: water 94 % of control | endpoint: median survival time, dose: 2.6 mg/kg/injection, schedule: Q04DX003 (ip), vehicle: water 105 % of control | endpoint: median survival time, dose: 3.0 mg/kg/injection, schedule: Q01DX005 (ip), vehicle: water 100 % of control | endpoint: median survival time, dose: 3.0 mg/kg/injection, schedule: Q04DX003 (sc), vehicle: water 99 % of control and 100 % of control | endpoint: median survival time, dose: 3.9 mg/kg/injection, schedule: Q01DX001 (ip), vehicle: water 100 % of control | endpoint: median survival time, dose: 3.9 mg/kg/injection, schedule: Q04DX003 (ip), vehicle: water 100 % of control | endpoint: median survival time, dose: 4.0 mg/kg/injection, schedule: Q01DX001 (ip), vehicle: saline 106 % of control | endpoint: median survival time, dose: 4.0 mg/kg/injection, schedule: Q01DX001 (iv), vehicle: water 102 % of control | endpoint: median survival time, dose: 5.0 mg/kg/injection, schedule: Q01DX017 (ip), vehicle: water 105 % of control | endpoint: median survival time, dose: 5.0 mg/kg/injection, schedule: Q04DX003 (ip), vehicle: Klucel (hydroxypropylcellulose) (HPC) 105 % of control | endpoint: median survival time, dose: 5.9 mg/kg/injection, schedule: Q01DX001 (ip), vehicle: water 105 % of control | endpoint: median survival time, dose: 5.9 mg/kg/injection, schedule: Q04DX003 (ip), vehicle: water 100 % of control | endpoint: median survival time, dose: 8.0 mg/kg/injection, schedule: Q01DX001 (iv), vehicle: water 102 % of control | endpoint: median survival time, dose: 8.3 mg/kg/injection, schedule: Q04DX003 (ip), vehicle: Klucel (hydroxypropylcellulose) (HPC) 94 % of control and 97 % of control | endpoint: median survival time, dose: 8.9 mg/kg/injection, schedule: Q01DX001 (ip), vehicle: water 94 % of control | endpoint: median survival time, dose: 10.0 mg/kg/injection, schedule: Q01DX001 (ip), vehicle: water 97 % of control and 100 % of control | endpoint: median survival time, dose: 10.0 mg/kg/injection, schedule: Q04DX003 (ip), vehicle: water 100 % of control | endpoint: median survival time, dose: 13.3 mg/kg/injection, schedule: Q01DX001 (ip), vehicle: water 100 % of control | endpoint: median survival time, dose: 25.0 mg/kg/injection, schedule: Q04DX003 (sc), vehicle: water 100 % of control and 102 % of control | endpoint: median survival time, dose: 39.0 mg/kg/injection, schedule: Q04DX003 (sc), vehicle: water 99 % of control and 100 % of control
